PubChem BioAssay AID1963858 (Molecular Pharmacology Branch, DTP, NCI, 2024)

System: HOP-62 multicell spheroids with HUVEC/MSC, viability
Assay: Anticancer human tumor HOP-62 cell line growth inhibition [KRAS2];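 further: viability read after a week of compound exposure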;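 on viability, T/C: 100% = DMSO vehicle-treated spheroids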
Details: for IC50: curve of first compound; for viability, T/C: stronger effect = lower value
Procedure, shortened: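 KRAS-mutant tumor cells were grown as spheroids with HUVEC endothelial cells and human MSCs as stroma. Targeted agents were tested alone and with KRAS pathway inhibitors. Doses started at or near clinical Cmax, or 10 microM, descending half-log.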

[1] = second compound 0.1 µM, first compound 0.0316 µM
[2] = second compound 0.1 µM, first compound 0.1 µM
[3] = second compound 0.1 µM, first compound 0.316 µM
[4] = second compound 0.1 µM, first compound 1 µM
[5] = second compound 0.1 µM, first compound 3.16 µM
[6] = second compound 0.1 µM, first compound 10 µM
[7] = second compound 0.316 µM, first compound 0.0316 µM
[8] = second compound 0.316 µM, first compound 0.1 µM
[9] = second compound 0.316 µM, first compound 0.316 µM
[10] = second compound 0.316 µM, first compound 1 µM
[11] = second compound 0.316 µM, first compound 3.16 µM
[12] = second compound 0.316 µM, first compound 10 µM
[13] = second compound 1 µM, first compound 0.0316 µM
[14] = second compound 1 µM, first compound 0.1 µM
[15] = second compound 1 µM, first compound 0.316 µM
[16] = second compound 1 µM, first compound 1 µM
[17] = second compound 1 µM, first compound 3.16 µM
[18] = second compound 1 µM, first compound 10 µM
[19] = second compound 3.16 µM, first compound 0.0316 µM
[20] = second compound 3.16 µM, first compound 0.1 µM
[21] = second compound 3.16 µM, first compound 0.316 µM
[22] = second compound 3.16 µM, first compound 1 µM
[23] = second compound 3.16 µM, first compound 3.16 µM
[24] = second compound 3.16 µM, first compound 10 µM
[25] = second compound 10 µM, first compound 0.0316 µM
[26] = second compound 10 µM, first compound 0.1 µM
[27] = second compound 10 µM, first compound 0.316 µM
[28] = second compound 10 µM, first compound 1 µM
[29] = second compound 10 µM, first compound 3.16 µM
[30] = second compound 10 µM, first compound 10 µM
[31] = second compound 0.1 µM, first compound 0.00316 µM
[32] = second compound 0.1 µM, first compound 0.01 µM
[33] = second compound 0.316 µM, first compound 0.00316 µM
[34] = second compound 0.316 µM, first compound 0.01 µM
[35] = second compound 1 µM, first compound 0.00316 µM
[36] = second compound 1 µM, first compound 0.01 µM
[37] = second compound 3.16 µM, first compound 0.00316 µM
[38] = second compound 3.16 µM, first compound 0.01 µM
[39] = second compound 10 µM, first compound 0.00316 µM
[40] = second compound 10 µM, first compound 0.01 µM

Row | Structure (SMILES) | IC50 (second compound 0.1 µM) | IC50 (second compound 0.316 µM) | IC50 (second compound 1 µM) | IC50 (second compound 3.16 µM) | IC50 (second compound 10 µM) | viability, T/C [1] | viability, T/C [2] | viability, T/C [3] | viability, T/C [4] | viability, T/C [7] | viability, T/C [8] | viability, T/C [9] | viability, T/C [10] | viability, T/C [13] | viability, T/C [14] | viability, T/C [15] | viability, T/C [19] | viability, T/C [20] | viability, T/C [25] | viability, T/C [26] | further results
1 | CC(C)NCC(C(=O)N1CCN(c2ncnc3c2C(C)CC3O)CC1)c1ccc(Cl)cc1 (stereo not given) + COc1cc2nc(C)nc(NC(C)c3cc(N)cc(C(F)(F)F)c3)c2cc1OC1CCOC1 | 649 nM | 412 nM | 222 nM | 416 nM | < 31.6 nM | 101% | 85.5% | 73% | 38.3% | 92.5% | 85.4% | 58.7% | 21.6% | 91% | 67.8% | 42.8% | 63.1% | 59.1% | 49.1% | 33.8% | viability, T/C [5]: 9.92%; viability, T/C [6]: 6.97%; viability, T/C [11]: 7.46%; viability, T/C [12]: 6.79%; viability, T/C [16]: 20%; viability, T/C [17]: 5.76%; viability, T/C [18]: 3.7%; viability, T/C [21]: 64%; viability, T/C [22]: 11.2%; viability, T/C [23]: 6.02%; viability, T/C [24]: 5.53%; viability, T/C [27]: 23.7%; viability, T/C [28]: 10.7%; viability, T/C [29]: 8.2%; viability, T/C [30]: 5.6%
2 | CC1(C)CCC(CN2CCN(c3ccc(C(=O)NS(=O)(=O)c4ccc(NCC5CCOCC5)c([N+](=O)[O-])c4)c(Oc4cnc5[nH]ccc5c4)c3)CC2)=C(c2ccc(Cl)cc2)C1 + COc1cc2nc(C)nc(NC(C)c3cc(N)cc(C(F)(F)F)c3)c2cc1OC1CCOC1 | 4240 nM | 4580 nM | 3430 nM | 1660 nM | 370 nM | 84.1% | 92.3% | 79.6% | 82.6% | 87.5% | 88.7% | 78.2% | 75.3% | 85.1% | 88% | 78.9% | 78% | 75.6% | 55.6% | 56% | viability, T/C [5]: 58%; viability, T/C [6]: 26%; viability, T/C [11]: 65%; viability, T/C [12]: 23.2%; viability, T/C [16]: 64.6%; viability, T/C [17]: 57.8%; viability, T/C [18]: 14.5%; viability, T/C [21]: 62.8%; viability, T/C [22]: 62.2%; viability, T/C [23]: 38.5%; viability, T/C [24]: 26%; viability, T/C [27]: 52.8%; viability, T/C [28]: 39.5%; viability, T/C [29]: 24%; viability, T/C [30]: 7.27%
3 | CCN1CCN(Cc2ccc(Nc3ncc(F)c(-c4cc(F)c5nc(C)n(C(C)C)c5c4)n3)nc2)CC1 + COc1cc2nc(C)nc(NC(C)c3cc(N)cc(C(F)(F)F)c3)c2cc1OC1CCOC1 | 911 nM | 979 nM | 613 nM | 23.2 nM | < 3.16 nM | 84.2% | 79.4% | 73.8% | 45.6% | 85.6% | 69.9% | 63.2% | 49.2% | 67.6% | 69.9% | 49.6% | 50.6% | 41.8% | 24.4% | 21.9% | viability, T/C [31]: 102%; viability, T/C [32]: 97%; viability, T/C [33]: 101%; viability, T/C [34]: 93.5%; viability, T/C [35]: 80.8%; viability, T/C [36]: 74.4%; viability, T/C [16]: 47.8%; viability, T/C [37]: 55.5%; viability, T/C [38]: 52.9%; viability, T/C [21]: 42.4%; viability, T/C [22]: 34.8%; viability, T/C [39]: 49.9%; viability, T/C [40]: 32.2%; viability, T/C [27]: 18.5%; viability, T/C [28]: 0.89%
4 | Cn1ncnc1[C@H]1c2n[nH]c(=O)c3cc(F)cc(c23)N[C@@H]1c1ccc(F)cc1 + COc1cc2nc(C)nc(NC(C)c3cc(N)cc(C(F)(F)F)c3)c2cc1OC1CCOC1 | > 100 nM | > 100 nM | > 100 nM | 74.2 nM | 2.96 nM | 97.6% | 70.4% |  |  | 83.5% | 78.8% |  |  | 66% | 57.1% |  | 48.5% | 51% | 42.8% | 41.6% | viability, T/C (second compound 0.1 µM, first compound 0.000316 µM): 95.1%; viability, T/C (second compound 0.1 µM, first compound 0.001 µM): 102%; viability, T/C [31]: 94.3%; viability, T/C [32]: 87%; viability, T/C (second compound 0.316 µM, first compound 0.000316 µM): 104%; viability, T/C (second compound 0.316 µM, first compound 0.001 µM): 91.7%; viability, T/C [33]: 86.8%; viability, T/C [34]: 94.2%; viability, T/C (second compound 1 µM, first compound 0.000316 µM): 96%; viability, T/C (second compound 1 µM, first compound 0.001 µM): 89.5%; viability, T/C [35]: 69.9%; viability, T/C [36]: 66.6%; viability, T/C (second compound 3.16 µM, first compound 0.000316 µM): 75.7%; viability, T/C (second compound 3.16 µM, first compound 0.001 µM): 85.6%; viability, T/C [37]: 72.8%; viability, T/C [38]: 58.1%; viability, T/C (second compound 10 µM, first compound 0.000316 µM): 58.6%; viability, T/C (second compound 10 µM, first compound 0.001 µM): 59%; viability, T/C [39]: 50.8%; viability, T/C [40]: 40.8%
